Assay results as given in ChEMBL document CHEMBL4138051, “Antimalarial drug discovery targeting apical membrane antigen 1” (Medchemcomm, 2017).
pIC50: −log10 of the molar value.

Target: T1, Apical membrane antigen 1 (Plasmodium falciparum, UniProt Q94661)
T1 sequence (Q94661 whole entry): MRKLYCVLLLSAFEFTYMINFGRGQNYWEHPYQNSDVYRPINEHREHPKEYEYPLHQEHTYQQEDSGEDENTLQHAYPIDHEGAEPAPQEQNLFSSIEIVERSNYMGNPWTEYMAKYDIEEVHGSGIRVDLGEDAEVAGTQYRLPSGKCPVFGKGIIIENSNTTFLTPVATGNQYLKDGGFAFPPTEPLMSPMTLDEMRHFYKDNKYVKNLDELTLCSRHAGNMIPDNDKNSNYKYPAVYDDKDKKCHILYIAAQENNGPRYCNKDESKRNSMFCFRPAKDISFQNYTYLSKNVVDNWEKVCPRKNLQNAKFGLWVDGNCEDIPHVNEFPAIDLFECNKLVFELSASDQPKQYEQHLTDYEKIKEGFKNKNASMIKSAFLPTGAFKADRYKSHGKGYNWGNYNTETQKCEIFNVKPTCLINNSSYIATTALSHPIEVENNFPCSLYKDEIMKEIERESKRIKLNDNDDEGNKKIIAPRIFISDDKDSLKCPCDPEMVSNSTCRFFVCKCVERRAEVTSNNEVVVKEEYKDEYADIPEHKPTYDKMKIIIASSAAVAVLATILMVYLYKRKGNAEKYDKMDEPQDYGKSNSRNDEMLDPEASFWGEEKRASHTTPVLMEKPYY
Assay: Displacement of 5-FAM-Ahx-ALPLFSKFGSRMH from Plasmodium falciparum AMA1 by fluorescence anisotropy assay

pIC50: 4.62
Compound: COc1ccc(CN2CC(OCc3ccccc3F)CN(C(=O)CCc3c(C)nc4ncnn4c3C)CC2=O)cc1 (stereo unspecified)
